These results are taken from patent EP0146155A1, “Ether of N-propanolamine derivative” (AKZO N.V., priority 1983, dated 1985).

The subject of one series is rat. In words: arrhythmogenic activity under specific hypokalaemic conditions in the rat. The series is classed as in vivo.
The next series relates to patients. The settings on record: clinical use; predominantly elderly patients, often hypokalaemic conditions; cited from earlier work.
For a further series, the system named is calcium. In words: calcium-antagonistic activity (measure for anti-anginal activity). Particulars: compared with either the racemate or the levo-rotatory isomer.
A further series is described as follows: anti-arrhythmic potency. The settings on record: compared with the racemate and the levo-rotatory isomer.
A short description of series [1]: QTc prolongation in the ECG (electrocardiogram). The series is classed as in vivo.
The nature of another series: solubility in water. Particulars: compared with the racemate. The series is classed as physicochemical.

Each structure is given as a SMILES string.

On to `CC(C)COCC(CN(Cc1ccccc1)c1ccccc1)N1CCCC1` (racemic) [racemate, bepridil, reference compound], for which the arrhythmogenic activity result with rat was “exacerbates arrhythmias”. The “rhythm disturbance of the ventricular tachycardia type” value with patients is given as “in rare cases been attended by a self limiting rhythm disturbance of the so-called ventricular tachycardia type”.
On to `CC(C)COC[C@@H](CN(Cc1ccccc1)c1ccccc1)N1CCCC1` [R-(dextro-rotatory) isomer, R-β-[(2-methylpropoxy)-methyl]-N-phenyl-N-(phenylmethyl)-l-pyrrolidine-ethanamine], for which the arrhythmogenic activity entry in the series with rat is given as “do not possess arrhythmogenic activity”. Besides, in the series on calcium, the calcium-antagonistic activity result is reported as “significant increase of calcium-antagonistic activity”. Besides, in “anti-arrhythmic potency”, the anti-arrhythmic potency entry was “not significantly different”. Further, the QTc prolongation result in series [1] is “does not produce QTc prolongation”. Also, the solubility in water result in the series “solubility in water” was “much better solubility in water than the racemate”.
